Laboratory results taken from patent US20090234162A1, “Radioactive Halogen-Labeled Phenyloxyaniline Derivatives” (Taisho Pharmaceutical Co., Ltd., priority 2005, published 2009).

Key:
[1] = molecular target: peripheral benzodiazepine receptor (PBR) (Homo sapiens, UniProt P30536); details: background art, Patent Documents 1 and 2; cited from earlier work
intracerebral PBR = molecular target: T1, intracerebral PBR (Homo sapiens, UniProt P30536); details: 11C-labeled ligand, PET, living human brain; cited from earlier work
T1 construct: In imaging the intracerebral PBR distribution of a living human brain with positron emission tomograph (PET); host or cells: living human brain (PET)
T1 sequence (P30536 whole entry): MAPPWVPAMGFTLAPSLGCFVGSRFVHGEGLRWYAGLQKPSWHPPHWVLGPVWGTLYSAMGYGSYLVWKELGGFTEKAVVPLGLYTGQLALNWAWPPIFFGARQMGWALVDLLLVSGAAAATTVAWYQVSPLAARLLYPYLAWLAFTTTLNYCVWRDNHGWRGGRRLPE

[2] = molecular target: T2, peripheral benzodiazepine receptors (Rattus norvegicus, UniProt P16257); assay: Ex vivo autoradiography of rat brain; format: in vivo
T2 construct: from tissue
Experimental: FIGS. 1 and 2 show cerebral ex vivo autoradiograms taken in 30 minutes after [^131I]2IDAA1106 was administered to a rat. […] In particular, radioactivity levels in the olfactory bulb, choroid plexus and cerebellum decreased remarkably and were equal to or less than 20% of FIG. 1.

[3] = rat, brain 30 minutes after administration, FIG. 1

peripheral benzodiazepine receptor (PBR), sequence (P30536 whole entry, species assumed): as the sequence (P30536 whole entry) above

| SMILES | affinity as PBR ligand [1] | selectivity as PBR ligand [1] | other results |
| --- | --- | --- | --- |
| COc1ccc(OC)c(CN(C(C)=O)c2cc(F)ccc2Oc2ccccc2)c1 [DAA1106, N-(2,5-dimethoxybenzyl)-N-(5-fluoro-2-phenoxyphenyl)acetamide] | strong affinity | high selectivity | – |
| COc1ccc(OCCF)c(CN(C(C)=O)c2cc(F)ccc2Oc2ccccc2)c1 [FEDAA1106, N-[2-(2-fluoro)ethyl-5-methoxybenzyl]-N-(5-fluoro-2-phenoxyphenyl)acetamide] | strong affinity | high selectivity | – |
| COc1ccc(CF)c(CN(C(C)=O)c2cc(F)ccc2Oc2ccccc2)c1 [FMDAA1106, N-(2-fluoromethyl-5-methoxybenzyl)-N-(5-fluoro-2-phenoxyphenyl)acetamide] | strong affinity | high selectivity | – |
| CCC(C)N(C)C(=O)c1cc2ccccc2c(-c2ccccc2Cl)n1 (stereo not drawn) [PK 11195, N-methyl-N-(1-methylpropyl)-1-(2-chlorophenyl)-isoquinoline-3-carboxamide] | – | – | accumulation in the brain (intracerebral PBR): extremely low accumulation in the brain |
| COc1ccc([131I])c(CN(C(C)=O)c2cc(F)ccc2Oc2ccccc2)c1 [[^131I]2IDAA1106, N-(2-[^131I]iodo-5-methoxybenzyl)-N-(5-fluoro-2-phenoxyphenyl)acetamide] | – | – | specificity as radioligand ([2]; conclusion from distribution profile and DAA1106 blocking): specific to peripheral benzodiazepine receptors; radioactivity levels in the olfactory bulb, choroid plexus and cerebellum relative to FIG. 1 ([2]; rat, 30 minutes, co-administration of DAA1106, FIG. 2 as % of FIG. 1): ≤ 20%; radioactivity distribution in the whole brain when DAA1106 administered at the same time ([2]; rat, 30 minutes, co-administration of DAA1106, FIG. 2 versus FIG. 1): decreased in the whole brain; brain permeability characteristics [2, 3]: relatively high brain permeability characteristics; radioactivity distribution at the olfactory bulb, choroid plexus and cerebellum [2, 3]: relatively high radioactivity distribution |
